Patent US9896443B2, “Perforin inhibiting benzenesulfonamide compounds, preparation and uses thereof” (Peter MacCallum Cancer Institute, priority 2012, dated 2018)
Like-named read-outs stand apart in the source and are kept apart here.

Experiments:
recombinant perforin = recombinant perforin (UniProt P10820); assay type: cell-based
Outline: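 Jurkat T lymphoma cells labelled with 51Cr for 1 h, washed, then exposed to recombinant perforin with compound in RPMI plus 0.1% BSA. Lysis measured as 51Cr release. IC50 from a concentration range run in triplicate.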

[1] = test system: KHYG-1 NK cell-mediated lysis of K562 cells; test: Inhibition of KHYG-1 NK cell-mediated lysis of K562 cells (51Cr release); assay type: cell-based; conditions: K562 target cells, Effector:Target 2:1, 4 hours at 37° C.
Outline: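 KHYG-1 effector cells pretreated with compound (up to 20 µM) for 20 min at RT. 51Cr-labelled K562 targets were then added at effector:target 2:1 and incubated 4 h at 37 °C. 51Cr release was gamma-counted and expressed as % specific cytotoxicity.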

[2] = read-out: Jurkat IC50; lysis of Jurkat T lymphoma cells by recombinant perforin, 0.1% BSA, 30 min pre-incubation, 4 hours at 37° C.
[3] = lysis of Jurkat T lymphoma cells by recombinant perforin, 0.1% BSA, 30 min pre-incubation, 4 hours at 37° C.; read-out: Jurkat IC50

recombinant perforin, sequence (P10820 whole entry): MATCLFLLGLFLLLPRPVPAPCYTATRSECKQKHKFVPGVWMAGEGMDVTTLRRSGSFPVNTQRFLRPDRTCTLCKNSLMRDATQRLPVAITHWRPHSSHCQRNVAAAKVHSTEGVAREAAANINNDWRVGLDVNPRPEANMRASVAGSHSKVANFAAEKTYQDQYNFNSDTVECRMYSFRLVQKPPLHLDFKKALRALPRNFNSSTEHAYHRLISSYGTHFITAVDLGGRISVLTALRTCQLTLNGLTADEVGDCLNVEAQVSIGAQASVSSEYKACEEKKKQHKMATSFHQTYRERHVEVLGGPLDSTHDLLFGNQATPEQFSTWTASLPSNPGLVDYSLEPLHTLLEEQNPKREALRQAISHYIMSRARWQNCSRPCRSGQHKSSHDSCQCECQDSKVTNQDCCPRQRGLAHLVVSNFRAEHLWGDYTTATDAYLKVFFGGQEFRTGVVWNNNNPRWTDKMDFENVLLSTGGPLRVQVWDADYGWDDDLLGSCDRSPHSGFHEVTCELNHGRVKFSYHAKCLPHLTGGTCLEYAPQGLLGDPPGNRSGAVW

Question: What does the source list for `Cc1cccc(S(=O)(=O)Nc2cncc(-c3ccc(-c4ccc5c(c4)CN(C)C5=O)s3)c2)c1` [Compound 2, 3-Methyl-N-(5-(5-(2-methyl-1-oxoisoindolin-5-yl)thiophen-2-yl)pyridin-3-yl)benzenesulfonamide]?
Answer: IC50 (recombinant perforin; [2]): 7.33 µM; inhibition at 20 µM ([1]; 4 h): 27%; melting point: 281 to 284 °C

Question: Which IC50 (recombinant perforin; [3]) does the source give for `CN1Cc2cc(-c3ccc(-c4cncc(NS(=O)(=O)c5ccccc5F)c4)s3)ccc2C1=O` [Compound 4, 2-Fluoro-N-(5-(5-(2-methyl-1-oxoisoindolin-5-yl)thiophen-2-yl)pyridin-3-yl)benzene-sulfonamide] here?
Answer: Its IC50 is 2.03 µM.

Question: And the inhibition at 20 µM ([1]; 4 h)?
Answer: Its inhibition at 20 µM is 40%.

Question: And the melting point?
Answer: Its melting point is 289 to 292 °C.

Question: With `CN1Cc2cc(-c3ccc(-c4cncc(NS(=O)(=O)c5ccccc5Cl)c4)s3)ccc2C1=O` [Compound 9, 2-Chloro-N-(5-(5-(2-methyl-1-oxoisoindolin-5-yl)thiophen-2-yl)pyridin-3-yl)benzenesulfonamide] as the compound, how does the IC50 (recombinant perforin; [3]) read?
Answer: Its IC50 is 4.01 µM.

Question: What about the inhibition at 20 µM ([1]; 4 h) of the same compound?
Answer: Its inhibition at 20 µM is 47%.

Question: And the melting point?
Answer: The melting point was 299 to 303 °C.

Question: What does the source list for `CN1Cc2cc(-c3ccc(-c4cncc(NS(=O)(=O)c5cccc(Cl)c5)c4)s3)ccc2C1=O` [Compound 10, 3-Chloro-N-(5-(5-(2-methyl-1-oxoisoindolin-5-yl)thiophen-2-yl)pyridin-3-yl)benzenesulfonamide]?
Answer: IC50 (recombinant perforin; [3]): 2.42 µM; inhibition at 20 µM ([1]; 4 h): 31%; melting point: 291 to 295 °C

Question: For `CN1Cc2cc(-c3ccc(-c4cncc(NS(=O)(=O)c5ccc(Cl)c(Cl)c5)c4)s3)ccc2C1=O` [Compound 12, 3,4-Dichloro-N-(5-(5-(2-methyl-1-oxoisoindolin-5-yl)thiophen-2-yl)pyridin-3-yl)benzenesulfonamide], which IC50 (recombinant perforin; [3]) is on record?
Answer: The IC50 was 1.32 µM.

Question: And the inhibition at 20 µM ([1]; 4 h)?
Answer: The inhibition at 20 µM was 45%.

Question: And the melting point?
Answer: Its melting point is 256 to 259 °C.

Question: What does the source list for `CN1Cc2cc(-c3ccc(-c4cncc(NS(=O)(=O)c5ccccc5Br)c4)s3)ccc2C1=O` [Compound 15, 2-Bromo-N-(5-(5-(2-methyl-1-oxoisoindolin-5-yl)thiophen-2-yl)pyridin-3-yl)benzenesulfonamide]?
Answer: IC50 (recombinant perforin; [3]): 2.66 µM; inhibition at 20 µM ([1]; 4 h): 42%; melting point: 289 to 293 °C

Question: With `CN1Cc2cc(-c3ccc(-c4cncc(NS(=O)(=O)c5cccc(Br)c5)c4)s3)ccc2C1=O` [Compound 16, 3-Bromo-N-(5-(5-(2-methyl-1-oxoisoindolin-5-yl)thiophen-2-yl)pyridin-3-yl)benzenesulfonamide] as the compound, how does the IC50 (recombinant perforin; [3]) read?
Answer: The IC50 was 2.11 µM.

Question: And the inhibition at 20 µM ([1]; 4 h)?
Answer: The inhibition at 20 µM was 20%.

Question: What about the melting point of the same compound?
Answer: The melting point was 303 to 307 °C.

Question: For `CN1Cc2cc(-c3ccc(-c4cncc(NS(=O)(=O)c5ccc(Br)cc5)c4)s3)ccc2C1=O` [Compound 17, 4-Bromo-N-(5-(5-(2-methyl-1-oxoisoindolin-5-yl)thiophen-2-yl)pyridin-3-yl)benzenesulfonamide], which IC50 (recombinant perforin; [3]) is on record?
Answer: The IC50 was 8.77 µM.

Question: And the inhibition at 20 µM ([1]; 4 h)?
Answer: The inhibition at 20 µM was 6%.

Question: What about the melting point of the same compound?
Answer: The melting point was 276 to 279 °C.

Question: With `COc1cccc(S(=O)(=O)Nc2cncc(-c3ccc(-c4ccc5c(c4)CN(C)C5=O)s3)c2)c1` [Compound 19, 3-Methoxy-N-(5-(5-(2-methyl-1-oxoisoindolin-5-yl)thiophen-2-yl)pyridin-3-yl)benzenesulfonamide] as the compound, how does the IC50 (recombinant perforin; [3]) read?
Answer: The IC50 was 2.56 µM.

Question: And the inhibition at 20 µM ([1]; 4 h)?
Answer: The inhibition at 20 µM was 17%.

Question: What about the melting point of the same compound?
Answer: Its melting point is 278 to 280 °C.

Question: Which results are given for `COc1ccc(S(=O)(=O)Nc2cncc(-c3ccc(-c4ccc5c(c4)CN(C)C5=O)s3)c2)cc1` [Compound 20, 4-Methoxy-N-(5-(5-(2-methyl-1-oxoisoindolin-5-yl)thiophen-2-yl)pyridin-3-yl)benzenesulfonamide]?
Answer: IC50 (recombinant perforin; [3]): 6.27 µM; inhibition at 20 µM ([1]; 4 h): 24%; melting point: 254 to 258 °C

Question: With `CN1Cc2cc(-c3ccc(-c4cncc(NS(=O)(=O)c5cccc(OC(F)(F)F)c5)c4)s3)ccc2C1=O` [Compound 23, N-(5-(5-(2-Methyl-1-oxoisoindolin-5-yl)thiophen-2-yl)pyridin-3-yl)-3-(trifluoromethoxy)benzenesulfonamide] as the compound, how does the IC50 (recombinant perforin; [3]) read?
Answer: The IC50 was 1.42 µM.

Question: And the inhibition at 20 µM ([1]; 4 h)?
Answer: Its inhibition at 20 µM is 38%.

Question: What about the melting point of the same compound?
Answer: Its melting point is 230 to 232 °C.

Question: Which inhibition at 20 µM ([1]; 4 h) does the source give for `Cc1ccc(S(=O)(=O)Nc2cncc(-c3ccc(-c4ccc5c(c4)CN(C)C5=O)s3)c2)cc1Cl` [Compound 27, 3-Chloro-4-methyl-N-(5-(5-(2-methyl-1-oxoisoindolin-5-yl)thiophen-2-yl)pyridin-3-yl)benzenesulfonamide] here?
Answer: The inhibition at 20 µM was 52%.

Question: What about the melting point of the same compound?
Answer: The melting point was 277 to 279 °C.

Question: With `CN1Cc2cc(-c3ccc(-c4cncc(NS(=O)(=O)c5ccccn5)c4)s3)ccc2C1=O` [Compound 31, N-(5-(5-(2-Methyl-1-oxoisoindolin-5-yl)thiophen-2-yl)pyridin-3-yl)pyridine-2-sulfonamide] as the compound, how does the IC50 (recombinant perforin; [3]) read?
Answer: Its IC50 is 0.74 µM.

Question: What about the inhibition at 20 µM ([1]; 4 h) of the same compound?
Answer: Its inhibition at 20 µM is 19%.

Question: And the melting point?
Answer: The melting point was 272 to 275 °C.

Question: What does the source list for `CN1Cc2cc(-c3ccc(-c4cncc(NS(=O)(=O)c5cccs5)c4)s3)ccc2C1=O` [Compound 34, N-(5-(5-(2-Methyl-1-oxoisoindolin-5-yl)thiophen-2-yl)pyridin-3-yl)thiophene-2-sulfonamide]?
Answer: IC50 (recombinant perforin; [3]): 1.07 µM; inhibition at 20 µM ([1]; 4 h): 45%; melting point: 300 to 304 °C

Question: For `COc1ncc(-c2ccc(-c3ccc4c(c3)CN(C)C4=O)s2)cc1NS(=O)(=O)c1ccc(F)cc1F` [Compound 37, 2,4-Difluoro-N-(2-methoxy-5-(5-(2-methyl-1-oxoisoindolin-5-yl)thiophen-2-yl)pyridin-3-yl)benzenesulphonamide], which IC50 (recombinant perforin; [3]) is on record?
Answer: Its IC50 is 3.56 µM.

Question: And the inhibition at 20 µM ([1]; 4 h)?
Answer: The inhibition at 20 µM was 36%.

Question: And the melting point?
Answer: Its melting point is 224 to 227 °C.

Question: What does the source list for `CN1Cc2cc(-c3ccc(-c4ccnc(NS(=O)(=O)c5ccc(F)cc5F)c4)s3)ccc2C1=O` [Compound 41, 2,4-Difluoro-N-(4-(5-(2-methyl-1-oxoisoindolin-5-yl)thiophen-2-yl)pyridin-2-yl)benzenesulfonamide]?
Answer: IC50 (recombinant perforin; [3]): 4.7 µM; inhibition at 20 µM ([1]; 4 h): 14%; melting point: 235 to 239 °C

Question: Which IC50 (recombinant perforin; [3]) does the source give for `CN1Cc2cc(-c3ccc(-c4cccc(NS(=O)(=O)c5ccc(F)cc5F)c4)s3)ccc2C1=O` [Compound 43, 2,4-Difluoro-N-(3-(5-(2-methyl-1-oxoisoindolin-5-yl)thiophen-2-yl)phenyl)benzene sulphonamide] here?
Answer: The IC50 was 5.74 µM.

Question: What about the inhibition at 20 µM ([1]; 4 h) of the same compound?
Answer: Its inhibition at 20 µM is 18%.

Question: What about the melting point of the same compound?
Answer: The melting point was 260 to 262 °C.

Question: For `CN1Cc2cc(-c3ccc(-c4cncc(S(=O)(=O)Nc5ccc(F)cc5F)c4)s3)ccc2C1=O` [Compound 44, N-(2,4-Difluorophenyl)-5-(5-(2-methyl-1-oxoisoindolin-5-yl)thiophen-2-yl)pyridine-3-sulphonamide], which IC50 (recombinant perforin; [3]) is on record?
Answer: Its IC50 is 2.24 µM.

Question: What about the inhibition at 20 µM ([1]; 4 h) of the same compound?
Answer: The inhibition at 20 µM was 57%.

Question: What about the melting point of the same compound?
Answer: Its melting point is 221 to 224 °C.

Question: Which results are given for `CN1Cc2cc(-c3ccc(-c4cnc(N)c(S(=O)(=O)Nc5ccc(F)cc5F)c4)s3)ccc2C1=O` [Compound 45, 2-Amino-N-(2,4-difluorophenyl)-5-(5-(2-methyl-1-oxoisoindolin-5-yl)thiophen-2-yl)pyridine-3-sulphonamide]?
Answer: IC50 (recombinant perforin; [2]): 4.63 µM; inhibition at 20 µM ([1]; 4 h): 14%; melting point: 278 to 279 °C

Question: Which results are given for `CN1Cc2cc(-c3ccc(-c4cncc(N(C)S(=O)(=O)c5ccc(F)cc5F)c4)s3)ccc2C1=O` [Compound 46, 2,4-Difluoro-N-methyl-N-(5-(5-(2-methyl-1-oxoisoindolin-5-yl)thiophen-2-yl)pyridin-3-yl)benzenesulphonamide]?
Answer: IC50 (recombinant perforin; [3]): 9.13 µM; inhibition at 20 µM ([1]; 4 h): 28%; melting point: 200 to 202 °C

Question: With `CN1Cc2ccc(-c3ccc(-c4cncc(NS(=O)(=O)c5ccc(F)cc5F)c4)s3)cc2C1=O` [Compound 50, 2,4-Difluoro-N-(5-(5-(2-methyl-3-oxoisoindolin-5-yl)thiophen-2-yl)pyridin-3-yl)benzenesulfonamide] as the compound, how does the IC50 (recombinant perforin; [2]) read?
Answer: The IC50 was 10.4 µM.

Question: What about the inhibition at 20 µM ([1]; 4 h) of the same compound?
Answer: The inhibition at 20 µM was 27%.

Question: And the melting point?
Answer: Its melting point is 292 to 295 °C.

Question: For `CN1CCc2ccc(-c3ccc(-c4cncc(NS(=O)(=O)c5ccc(F)cc5F)c4)s3)cc2C1=O` [Compound 55, 2,4-Difluoro-N-(5-(5-(2-methyl-1-oxo-1,2,3,4-tetrahydroisoquinolin-7-yl)thiophen-2-yl)pyridin-3-yl)benzenesulfonamide], which inhibition at 20 µM ([1]; 4 h) is on record?
Answer: The inhibition at 20 µM was 0%.

Question: And the melting point?
Answer: The melting point was 280 to 283 °C.

Question: Which results are given for `O=C1c2ccc(-c3ccc(-c4cncc(NS(=O)(=O)c5ccc(F)cc5F)c4)s3)cc2CN1CCO` [Compound 56, 2,4-Difluoro-N-(5-(5-(2-(2-hydroxyethyl)-1-oxoisoindolin-5-yl)thiophen-2-yl)pyridin-3-yl)benzenesulfonamide]?
Answer: IC50 (recombinant perforin; [2]): 1.33 µM; inhibition at 20 µM ([1]; 4 h): 32%; melting point: 211 to 216 °C

Question: What does the source list for `CCCCn1cc(C(C)=O)c2cc(-c3ccc(-c4cncc(NS(=O)(=O)c5ccc(F)cc5F)c4)s3)ccc21` [Compound 58, N-(5-(5-(3-Acetyl-1-butyl-1H-indol-5-yl)thiophen-2-yl)pyridin-3-yl)-2,4-difluorobenzenesulfonamide]?
Answer: IC50 (recombinant perforin; [3]): 5.5 µM; inhibition at 20 µM [1]: 64%; melting point: 188 to 191 °C

Question: With `CC(=O)c1cn(C)c2ccc(-c3ccc(-c4cncc(NS(=O)(=O)c5ccc(F)cc5F)c4)s3)cc12` [Compound 59, N-(5-(5-(3-Acetyl-1-methyl-1H-indol-5-yl)thiophen-2-yl)-pyridin-3-yl)-2,4-difluorobenzenesulfonamide] as the compound, how does the IC50 (recombinant perforin; [2]) read?
Answer: The IC50 was 11.2 µM.

Question: And the inhibition at 20 µM ([1]; 4 h)?
Answer: The inhibition at 20 µM was 72%.

Question: And the melting point?
Answer: Its melting point is 241 to 244 °C.

Question: For `Cc1ccc(NS(=O)(=O)c2ccccn2)cc1-c1ccc(-c2ccc3c(c2)CN(C)C3=O)s1` [Compound 60, N-(4-Methyl-3-(5-(2-methyl-1-oxoisoindolin-5-yl)thiophen-2-yl)phenyl)pyridine-2-sulfonamide], which IC50 (recombinant perforin; [3]) is on record?
Answer: Its IC50 is 15.4 µM.

Question: And the inhibition at 20 µM ([1]; 4 h)?
Answer: The inhibition at 20 µM was 17%.

Question: And the melting point?
Answer: The melting point was 274 to 277 °C.
